Reference: article PMC8294803, “A Roadmap to the Structure-Related Metabolism Pathways of Per- and Polyfluoroalkyl Substances in the Early Life Stages of Zebrafish (Danio rerio)” (Environmental Health Perspectives, 2021)
“And” between values parts separate entries of the source, which are not always exact repeats. Equal entries are not always repeated.

Key:
zebrafish embryos [1] = assay: Time courses of carboxamides and PFCA metabolites in zebrafish embryos/larvae; assay type: in vivo, Danio rerio; conditions: zebrafish exposed to 5 μM of 19, 31 and 38 separately, N=20, three replicates
Experimental: Time courses of carboxamides (19, 31, and 38) and corresponding perfluoroalkyl carboxylic acid (PFCA) metabolites in zebrafish larvae were investigated. The procedure of zebrafish embryo collection was described above. Twenty embryos were randomly assigned into each well of a 24-well plate. Subsequently, 15 wells were dosed with 3mL of each chemical ( 5μM ). […] The exposure medium was prepared fresh and changed each day, and dead larvae were discarded. For each chemical, 3 wells were harvested every 24 h, and the surviving larvae were transferred to three different tubes for further PFAS extraction ( N=12–18 ).

zebrafish larvae [2] = assay: Bioconcentration factors (BCF) of PFAS in zebrafish larvae; conditions: for BCF 0.5µM: 0.5 µM exposure; for BCF 0.5µM / BCF 5µM: 120 hpf, three replicates; for BCF 5µM: 5 µM exposure
Experimental: (§1) Zebrafish embryos were collected immediately after spawning, within 1 h, and subsequently transferred to 24-well plates with 1mL of facility water ( 0.036g sea salt, 0.15g sodium bicarbonate in 2L of reverse osmosis water). […] Three well replicates on the same plate were conducted for each concentration of individual chemical. […] Seven batches of experiments were performed to test all 74 PFAS. DMSO controls were incorporated in each batch of exposure experiments. Three replicates were performed for each treatment group, and 20 embryos were used for each replicate. […] For daily replenishment, 2.5mL of old exposure medium were replaced with freshly prepared medium every 24 h from 24 to 96 h post fertilization (hpf). Hatched or dead embryo numbers were recorded every 24 hpf, after which dead embryos were discarded from the growth media. Dead embryos or unhatched embryos were not used for PFAS measurement because the metabolism of PFAS might have been impacted. Zebrafish larvae collection occurred at 120 hpf. First, the larvae were anesthetized by cooling the plate in ice water (0–4°C) for ∼20 min . Then 8–15 larvae in each well were transferred into 1.5-mL tubes. Exposure media was carefully removed, and then the larvae were weighed (wet weight) after blotting excess water with a paper towel. […] Samples were stored at −80 °C until further chemical analysis was performed. Survival rate and hatching rate were calculated by summarizing all the documented data from the whole treatment duration. […] The exposure experiment of PFOSA was repeated using the same procedure as described above.
(§2) Each sample was spiked with 2μL of 0.2μg/mL mass-labeled PFAS mixture. Following this, 500μL of dichloromethane/methanol (2:1, vol/vol) was added to each sample for PFAS extraction. Larvae were then homogenized via ultrasonic probe, followed by 30 min of shaking and 30 min of sonication. Each sample was centrifuged at 14,000×g for 5 min, after which the supernatant was transferred to new tubes. Extraction was repeated once and the two supernatants were combined, evaporated under nitrogen flow, and reconstituted in 200μL of methanol for MS analysis.
(§3) Three microliters of each zebrafish extract was applied to a C18 column ( 1.5μm; 2.1mm×50mm; Thermo Scientific) and analyzed using a Vanquish ultra-HPLC system (Thermo Fisher Scientific) coupled to a Q Exactive high-resolution mass spectrometer (Thermo Fisher Scientific). The sampler and column compartments were maintained at 4°C and 40°C, respectively. The aqueous mobile phase solution (A) consisted of water, whereas the organic mobile phase solution (B) consisted of acetonitrile. […] MS data was acquired in full scan mode (100–1000 m/z, 70,000 mass resolution, 3×10^6 maximum ions collected per 100 ms), and tandem MS (MS/MS) data was recorded by all-ion fragmentation (AIF) mode. Negative and positive ion modes were carried out simultaneously at a 10-min method duration. […] An overview of the analyses conducted on the various PFAS is available in Table S2.
GraphPad Prism (version 7.0.4; GraphPad Software) and R studio (version 1.1.456; R Studio Inc.) software was used, and an ANOVA with Dunnett tests was employed to evaluate the statistical significance of the percentage hatched and mortality rate. Exponential regressions were used to determine the relationships between bioconcentration factor (BCF) and binding affinities ( Kd ) to L-FABP.

zebrafish larvae [3] = assay: Identification of taurine conjugates by the DIPIC-Frag method in zebrafish larvae; assay type: in vivo, Danio rerio; conditions: among 74 PFAS
Text: To identify the taurine conjugates in zebrafish larvae exposed to PFAS, we used the data-independent precursor isolation and characteristic fragment (DIPIC-Frag) method developed in previous studies ([Peng et al. 2015], [2016]) to enhance the coverage inspired by the detection of the characteristic fragment from taurine conjugates ( [taurine-H]^− , m/z 124.0063). Then, the taurine fragment peak was extracted from each AIF window across all 243 raw MS data. Once the taurine fragment peak was detected, corresponding precursor ions were identified from the same window and sample by aligning their chromatographic peaks. The precursor ions were further confirmed by their co-occurrences with the taurine fragment across samples. Once precursor ions were identified, the compound formulas and structures were predicted by interpreting high-resolution MS and MS/MS spectra, as mentioned above.

zebrafish embryos [4] = conditions: for pericardial oedemata, Mean / spinal curvature, Mean / tail dysplasia, Mean: 5μM through 120 hpf, malformation rate; for Mortality (%): 5 µM, exposure through 120 hpf
zebrafish larvae [5] = assay: Nontargeted analysis of PFAS metabolites in zebrafish larvae (high-resolution MS)
Experimental: as §1, §2, §3
Nontargeted data analysis was accomplished with R scripts that are available on Github (https://github.com/huiUofT/PFASmetabolite). […] The peak features were matched across samples with a mass tolerance of 2.5 ppm and a RT window of 20 s, after RT adjustment. The ratio of abundances of each feature in treatment groups relative to the control group (DMSO) was calculated. The p -values of the difference between two groups were determined by student’s t -tests.

[6] = biological target: liver fatty acid binding protein (L-FABP); set-up: method as in Yang et al. 2020; conditions: ref Yang et al. 2020; read-out: Kd (μM), L-FABP binding affinity; cited from earlier work
[7] = biological target: T1, recombinant human liver carboxylesterase 1 (hCES1) (Homo sapiens, UniProt P23141); assay: Hydrolysis of PFAS by recombinant hCES1; assay type: in vitro ADME; conditions: for percentage of polyfluoroalkyl carboxamide 19, hCES1: 100 μg/L hCES1; for percentage of polyfluoroalkyl carboxamide 19, hCES1 / percentage of polyfluoroalkyl carboxamide 19, Control: 37 °C, 1 hour, N=3; for percentage of polyfluoroalkyl carboxamide 19, Control: vehicle control without hCES1
T1 construct: purchased Sigma Aldrich
T1 sequence (P23141 18-567): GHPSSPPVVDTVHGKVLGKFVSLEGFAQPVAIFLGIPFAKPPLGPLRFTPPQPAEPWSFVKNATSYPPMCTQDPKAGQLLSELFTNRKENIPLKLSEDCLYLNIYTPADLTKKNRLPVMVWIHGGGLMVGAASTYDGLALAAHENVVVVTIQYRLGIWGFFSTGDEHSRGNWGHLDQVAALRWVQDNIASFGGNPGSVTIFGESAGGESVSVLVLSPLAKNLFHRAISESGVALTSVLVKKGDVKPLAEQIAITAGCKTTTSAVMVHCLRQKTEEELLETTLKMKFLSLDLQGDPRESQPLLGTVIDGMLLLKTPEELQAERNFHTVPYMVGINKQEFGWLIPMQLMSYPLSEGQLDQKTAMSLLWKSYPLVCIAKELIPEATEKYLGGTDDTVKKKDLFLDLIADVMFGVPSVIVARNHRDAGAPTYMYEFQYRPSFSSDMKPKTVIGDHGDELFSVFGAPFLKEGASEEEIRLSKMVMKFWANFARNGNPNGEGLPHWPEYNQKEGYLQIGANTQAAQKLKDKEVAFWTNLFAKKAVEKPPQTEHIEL
Experimental: Because recombinant zebrafish CES is not available, we decided to use hCES1 to evaluate the structure-related hydrolysis of PFAS. […] In vitro enzymatic activity experiments were carried out for 1 h in 1.5-mL tubes with 100μL phosphate buffer ( 137 mM sodium chloride, 10 mM phosphate buffer, 2.7 mM potassium chloride; pH 7.4) at 37°C with shaking. Reaction mixtures contained different concentrations of PFAS (1, 10, and 50μM ) and 100μg/L hCES1. […] To stop the hydrolysis reaction, four times the volume of ice-cold methanol was added. The hCES1 protein was precipitated out by centrifugation ( 14,000×g , 10 min). The supernatant was transferred to a new tube and analyzed via MS for the analysis of parent compounds and suspected metabolites (i.e., carboxylates).

Molecule | Peak intensity in zebrafish (zebrafish embryos [1]; 24 hpf) | Peak intensity in zebrafish (zebrafish embryos [1]; 48 hpf) | Peak intensity in zebrafish (zebrafish embryos [1]; 72 hpf) | Peak intensity in zebrafish (zebrafish embryos [1]; 96 hpf) | Peak intensity in zebrafish (zebrafish embryos [1]; 120 hpf) | Taurine conjugates detected (zebrafish larvae [3]) | pericardial oedemata, Mean (zebrafish embryos [4]) [%] | spinal curvature, Mean (zebrafish embryos [4]) [%] | tail dysplasia, Mean (zebrafish embryos [4]) [%] | Mortality (%) (zebrafish embryos [4]) | other results
O=C(O)C(F)(F)C(F)(F)C(F)(F)C(F)F [1H-PFPeA] | 41617598 and 43836041 and 44656574 | 60989972 and 64452114 and 58767796 | 101000000 and 97804534 and 98584848 | 168000000 and 176000000 and 174000000 | 221000000 and 206000000 and 215000000 |  |  |  |  |  | 
O=C(O)C(F)(F)C(F)(F)C(F)(F)F [PFBA (12)] | 10634213 and 16343253 and 15866316 | 25172596 and 26956389 and 28007592 | 26852594 and 32851030 and 26877542 | 47637483 and 46740315 and 40653414 | 68162507 and 69974600 and 72855428 |  |  |  |  |  | 
O=C(O)C(F)(F)C(F)(F)C(F)(F)C(F)(F)F [PFPeA, perfluoropentanoic acid] | 42022849 and 47643542 and 46800668 | 46439212 and 83368187 and 82483907 | 149000000 and 148000000 and 143000000 | 242000000 and 252000000 and 243000000 | 224000000 and 215000000 and 223000000 |  |  |  |  |  | 
O=C(O)C=CC(F)(C(F)(F)F)C(F)(F)F [compound 56, 3-(Perfluoroisopropyl)-2-propenoic acid] |  |  |  |  |  | taurine conjugates were detected | 0.00 | 0.00 | 0.00 | 4.4 | BCF 0.5µM (zebrafish larvae [2]; zebrafish larvae): 2.65 L/kg; BCF 5µM (zebrafish larvae [2]; zebrafish larvae): 1.6 ± 0.21 L/kg
COC(=O)CCC(F)(F)C(F)(F)C(F)(F)C(F)(F)F [compound 39, Methyl 2H,2H,3H,3H-perfluoroheptanoate] |  |  |  |  |  | taurine conjugates were detected | 0.00 | 0.00 | 0.00 | 1.1 | 
O=C(O)C(F)(F)C(F)(F)C(F)F [compound 4, 4H-Perfluorobutanoic acid] |  |  |  |  |  |  | 1.11 | 2.22 | 0.00 | 0 | Concentration in zebrafish larvae directly exposed (zebrafish larvae [2]; 5μM of the PFCA itself): 7.0 ± 1.3 µM; BCF 0.5µM (zebrafish larvae [2]; zebrafish larvae): 3.397 L/kg; BCF 5µM (zebrafish larvae [2]; zebrafish larvae): 1.9 ± 0.4 L/kg; Peak intensity of PFCA in zebrafish embryos directly exposed to the PFCA (zebrafish larvae [5]; 5μM through 120 hpf, single replicates, listed as 1H-PFBA): 18758096 and 21668103 and 32644288; Kd [6]: 352 µM
3-(Perfluoro-2-butyl)propane-1,2-diol [compound 30] |  |  |  |  |  | taurine conjugates were detected | 2.22 | 2.22 | 0.00 | 0 | 
NC(=O)C(F)(F)C(F)(F)C(F)(F)C(F)(F)F [compound 19, Nonafluoropentanamide] |  |  |  |  |  |  | 0.00 | 0.00 | 0.00 | 1.1 | BCF (zebrafish larvae [2]; zebrafish larvae, exposure concentration not given): < 10 L/kg; Metabolites / hydrolysis products in zebrafish larvae (zebrafish larvae [5]; in vivo, nontargeted analysis): high abundances of metabolized carboxylates were detected; percentage of polyfluoroalkyl carboxamide 19, hCES1 ([7]; 1 μM 19): 0.00%; percentage of polyfluoroalkyl carboxamide 19, Control ([7]; 1 μM 19): 114.95% and 85.05%; percentage of polyfluoroalkyl carboxamide 19, hCES1 ([7]; 10 μM 19): 0.00%; percentage of polyfluoroalkyl carboxamide 19, Control ([7]; 10 μM 19): 100.46% and 90.28% and 109.26%; Parent hydrolyzed by hCES1 ([7]; 10μM PFAS, 100μg/L hCES1): completely metabolized; Parent PFAS, hCES1 (%) ([7]; 10 μM PFAS, 100 μg/L hCES1, phosphate buffer 37 °C 1 hour, single replicates, axis %Control): 0.00%; Parent PFAS, Control (%) ([7]; 10 μM PFAS, without hCES1, phosphate buffer 37 °C 1 hour, single replicates): 100.46% and 90.28% and 109.26%; percentage of polyfluoroalkyl carboxamide 19, hCES1 ([7]; 50 μM 19): 62.27% and 65.75% and 66.90%; percentage of polyfluoroalkyl carboxamide 19, Control ([7]; 50 μM 19): 96.65% and 95.06% and 108.30%
OCCCC(F)(F)C(F)(F)C(F)(F)F [compound 49, 3-(Perfluoropropyl)propanol] |  |  |  |  |  | taurine conjugates were detected | 0.00 | 0.00 | 0.00 | 1.1 | 
